How the values were obtained:
[1] = (§1) Pharmacokinetic parameters for Letrozole evaluated following single oral administration of Letrozole tablets; type: ADME, organism-based; design: dose 2.5 mg, route oral; conditions: human, in vivo, 2.5 mg
Homo sapiens = assay: as §1; type: ADME, organism-based; design: dose 2.5 mg, route oral; conditions: in vivo

SMILES: N#Cc1ccc(C(c2ccc(C#N)cc2)n2cncn2)cc1 [LETROZOLE]
- CL/F [1]: 0.58 mL/min/kg
- Cmax [1]: 115 nM
- Tmax [1]: 1 h
- dose excreted ([1]; read-out: Excretion): 3.9%
- Vd (Homo sapiens): 1.87 L/kg

From ChEMBL document CHEMBL3832547, “Goodman and Gilman Ed. 12 | The Pharmaceutical Basis of Therapeutics| Table AII-I: Pharmacokinetic Data” (2011)
